From patent US6727245B2, “Heterobicyclic derivatives” (Fujisawa Pharmaceutical Co., Ltd., priority 1994, dated 2004)

Legend:
[1] = test system: TNF-α Production in Human Mononuclear Cells; assay: Inhibition on TNF-α Production in Human Mononuclear Cells; format: cell-based; conditions: MNC from healthy volunteers, 1 μg/ml LPS (E. coli), 37° C. for 16 hours, TNF-α in supernatant by ELISA
Method: (b) Inhibition on TNF-α Production in Human Mononuclear Cells
Blood was drawn from healthy volunteers with heparin. The mononuclear cell (MNC) fraction was obtained by gradient centrifugation (1800 rpm, 15 minutes), diluted with the same volume of RPMI-1640 culture medium, over Ficoll-Paque (Pharmacia LKB Biotechnology). MNC were washed twice with RPMI-1640. Then, MNC were resuspended in RPMI-1640 culture medium supplemented with 2 mM L-glutamine and 1% fetal bovine serum. MNC were incubated at 37° C. for 16 hours in 96-well micro culture plate at a concentration of […] with or without 1 μg/ml lipopolysaccharide (LPS) (from E. coli) and various amounts of test compound. At the end of incubation, the supernatant was obtained and its TNF-α active was measured by enzyme-linked immunosorbent assay (ELISA). ELISA was performed with TNF-α ELISA kit (Otsuka Pharmaceutical Co., Ltd.).

[2] = target: U937 Phosphodiesterase IV (PDE IV); assay: Inhibition of U937 Phosphodiesterase IV (PDE IV); format: biochemical; conditions: PDE IV enzyme preparation from U937 cell homogenate; [3H]-cAMP substrate; CI-930 (PDE III inhibitor) final 10 μM; 30° C.
Method: (a) Inhibition of U937 Phosphodiesterase IV (PDE IV)
Harvested U937 was freezed in −80° C. and throwed to destroy the cell body. The pellet of destroyed cell was washed by Phosphate-buffered saline (PBS).
The washed cell pellet was homogenized with Dounce homogenizer (20 strokes) in homogenizing buffer (0.5% deoxycholate [DOC], 5 mM 2-mercaptoethanol, 1 μM leupeptin, 100 μM PMSF, 20 μM p-tosyl-L-lysine-chloromethyl ketone [TLCK] in PBS). The homogenate was centrifuged at 100,000 g×90 minutes (4° C.) and the supernatant containing PDE IV activity was dialyzed against dialysis buffer, which was the same component as homogenizing buffer without DOC. The dialyzed supernatant of homogenate was stored in freezer (−80° C.) as PDE IV enzyme preparation.
Enzyme preparation was diluted in assay buffer (10 mM Tris-HCl, 5 mM MgCl, 1 mM 2-Mercaptoethanol [pH 8.0]). In advance the rate of dilution was choosen every new lot of homogenizing preparation. […]
The reaction tube was preincubated in a water bath (30° C.) for 5 minutes, then 100 μl [^3H]-cAMP (37.0 MBq/ml [^3H]-cAMP: 4 μM cold cAMP=1:800) was added thereto. […] The mixture was centrifuged at 1000 rpm×5 minutes, and then 500 μl of the supernatant was added to 10 ml scintillation fluid in appropriate vial, vortexed, and counted for [^3H].
The inhibitory activity was calculated according to the following equation: [formula]

## O=C(Nc1cccc(-n2c(=O)c(Cc3ccccc3)nc3cccnc32)c1)Nc1cccc2ccccc12 [Test compound (a), 4-[3-[3-(1-Naphthyl)ureido]phenyl]-2-benzyl-3-oxo-3,4-dihydropyrido[2,3-b]pyrazine]
[1]
  IC50: 56 nM
[2]
  IC50: 31 nM

## CCNC(=O)Nc1cccc(-c2cccc(-n3c(=O)c(Cc4cccnc4)nc4cccnc43)c2)c1 [Example 73, 4-[3-[3-(3-Ethylureido)phenyl]phenyl]-2-(3-pyridylmethyl)-3-oxo-3,4-dihydropyrido[2,3-b]pyrazine]
other
  melting point: 257 to 258 °C

## O=C(Nc1cccc(-c2cccc(-n3c(=O)c(Cc4cccnc4)nc4cccnc43)c2)c1)c1cnc2ccccc2n1 [Example 76(4), 4-[3-[3-(2-Quinoxalinylcarbonylamino)phenyl]phenyl]-2-(3-pyridylmethyl)-3-oxo-3,4-dihydropyrido[2,3-b]pyrazine]
other
  melting point: 206 to 209 °C

## O=C(Nc1cccc(-n2c(=O)c(Cc3cccnc3)nc3cccnc32)c1)Oc1ccccc1
other
  melting point: 227 to 232 °C
